Measurements published in publication PMC5392334, “Discovery and characterization of a novel irreversible EGFR mutants selective and potent kinase inhibitor CHMFL-EGFR-26 with a distinct binding mode” (Oncotarget, 2017).

Assays:
[1] = biological target: T1, AAK1 (Homo sapiens, UniProt Q2M2I8); assay: KinomeScan; format: binding; conditions: read-out: % control
T1 construct: purchased DiscoveRx KINOMEscan

[2] = biological target: T2, ABL1(M351T)-phosphorylated (Homo sapiens, UniProt P00519, M351T); assay: KinomeScan; format: binding; conditions: read-out: % control
T2 construct: purchased DiscoveRx KINOMEscan

[3] = biological target: T3, ACVR2B (Homo sapiens, UniProt Q13705); assay: KinomeScan; format: binding; conditions: read-out: % control
T3 construct: purchased DiscoveRx KINOMEscan

[4] = biological target: T4, BRSK1 (Homo sapiens, UniProt Q8TDC3); assay: KinomeScan; format: binding; conditions: read-out: % control
T4 construct: purchased DiscoveRx KINOMEscan

[5] = biological target: T5, CDK5 (Homo sapiens, UniProt Q00535); assay: KinomeScan; format: binding; conditions: read-out: % control
T5 construct: purchased DiscoveRx KINOMEscan

[6] = biological target: T6, CDK9 (Homo sapiens, UniProt P50750); assay: KinomeScan; format: binding; conditions: read-out: % control
T6 construct: purchased DiscoveRx KINOMEscan

[7] = biological target: T7, CDKL2 (Homo sapiens, UniProt Q92772); assay: KinomeScan; format: binding; conditions: read-out: % control
T7 construct: purchased DiscoveRx KINOMEscan

[8] = biological target: T8, CDKL3 (Homo sapiens, UniProt Q8IVW4); assay: KinomeScan; format: binding; conditions: read-out: % control
T8 construct: purchased DiscoveRx KINOMEscan

[9] = biological target: T9, CDKL5 (Homo sapiens, UniProt O76039); assay: KinomeScan; format: binding; conditions: read-out: % control
T9 construct: purchased DiscoveRx KINOMEscan

[10] = biological target: T10, CLK4 (Homo sapiens, UniProt Q9HAZ1); assay: KinomeScan; format: binding; conditions: read-out: % control
T10 construct: purchased DiscoveRx KINOMEscan

[11] = biological target: T11, CSNK2A1 (Homo sapiens, UniProt P68400); assay: KinomeScan; format: binding; conditions: read-out: % control
T11 construct: purchased DiscoveRx KINOMEscan

[12] = biological target: T12, DCAMKL3 (Homo sapiens, UniProt Q9C098); assay: KinomeScan; format: binding; conditions: read-out: % control
T12 construct: purchased DiscoveRx KINOMEscan

[13] = biological target: T13, DLK (Homo sapiens, UniProt Q12852); assay: KinomeScan; format: binding; conditions: read-out: % control
T13 construct: purchased DiscoveRx KINOMEscan

[14] = biological target: T14, DRAK1 (Homo sapiens, UniProt Q9UEE5); assay: KinomeScan; format: binding; conditions: read-out: % control
T14 construct: purchased DiscoveRx KINOMEscan

[15] = biological target: T15, EPHA8 (Homo sapiens, UniProt P29322); assay: KinomeScan; format: binding; conditions: read-out: % control
T15 construct: purchased DiscoveRx KINOMEscan

[16] = biological target: T16, ERBB2 (Homo sapiens, UniProt P04626); assay: KinomeScan; format: binding; conditions: read-out: % control
T16 construct: purchased DiscoveRx KINOMEscan

[17] = biological target: T17, FLT3 (Homo sapiens, UniProt P36888); assay: KinomeScan; format: binding; conditions: read-out: % control
T17 construct: purchased DiscoveRx KINOMEscan

[18] = biological target: T18, IKK-beta (Homo sapiens, UniProt O14920); assay: KinomeScan; format: binding; conditions: read-out: % control
T18 construct: purchased DiscoveRx KINOMEscan

[19] = biological target: T19, JAK1(JH1domain-catalytic) (Homo sapiens, UniProt P23458); assay: KinomeScan; format: binding; conditions: read-out: % control
T19 construct: JAK1(JH1domain-catalytic); purchased DiscoveRx KINOMEscan

[20] = biological target: T20, JAK1(JH2domain-pseudokinase) (Homo sapiens, UniProt P23458); assay: KinomeScan; format: binding; conditions: read-out: % control
T20 construct: JAK1(JH2domain-pseudokinase); purchased DiscoveRx KINOMEscan

[21] = biological target: T21, JNK1 (Homo sapiens, UniProt P45983); assay: KinomeScan; format: binding; conditions: read-out: % control
T21 construct: purchased DiscoveRx KINOMEscan

[22] = biological target: T22, KIT-autoinhibited (Homo sapiens, UniProt P10721); assay: KinomeScan; format: binding; conditions: read-out: % control
T22 construct: purchased DiscoveRx KINOMEscan

[23] = biological target: T23, LKB1 (Homo sapiens, UniProt Q15831); assay: KinomeScan; format: binding; conditions: read-out: % control
T23 construct: purchased DiscoveRx KINOMEscan

[24] = biological target: T24, MAPKAPK5 (Homo sapiens, UniProt Q8IW41); assay: KinomeScan; format: binding; conditions: read-out: % control
T24 construct: purchased DiscoveRx KINOMEscan

[25] = biological target: T25, p38-alpha (Homo sapiens, UniProt Q16539); assay: KinomeScan; format: binding; conditions: read-out: % control
T25 construct: purchased DiscoveRx KINOMEscan

[26] = biological target: T26, PDGFRB (Homo sapiens, UniProt P09619); assay: KinomeScan; format: binding; conditions: read-out: % control
T26 construct: purchased DiscoveRx KINOMEscan

[27] = biological target: T27, PHKG2 (Homo sapiens, UniProt P15735); assay: KinomeScan; format: binding; conditions: read-out: % control
T27 construct: purchased DiscoveRx KINOMEscan

[28] = biological target: T28, PIK3CA(M1043I) (Homo sapiens, UniProt P42336, M1043I); assay: KinomeScan; format: binding; conditions: read-out: % control
T28 construct: purchased DiscoveRx KINOMEscan

[29] = biological target: T29, PIK3CA(Q546K) (Homo sapiens, UniProt P42336, Q546K); assay: KinomeScan; format: binding; conditions: read-out: % control
T29 construct: purchased DiscoveRx KINOMEscan

[30] = biological target: T30, PIK4CB (Homo sapiens, UniProt Q9UBF8); assay: KinomeScan; format: binding; conditions: read-out: % control
T30 construct: purchased DiscoveRx KINOMEscan

[31] = biological target: T31, PKMYT1 (Homo sapiens, UniProt Q99640); assay: KinomeScan; format: binding; conditions: read-out: % control
T31 construct: purchased DiscoveRx KINOMEscan

[32] = biological target: T32, PLK3 (Homo sapiens, UniProt Q9H4B4); assay: KinomeScan; format: binding; conditions: read-out: % control
T32 construct: purchased DiscoveRx KINOMEscan

[33] = biological target: T33, PRKCD (Homo sapiens, UniProt Q05655); assay: KinomeScan; format: binding; conditions: read-out: % control
T33 construct: purchased DiscoveRx KINOMEscan

[34] = biological target: T34, TRKA (Homo sapiens, UniProt P04629); assay: KinomeScan; format: binding; conditions: read-out: % control
T34 construct: purchased DiscoveRx KINOMEscan

[35] = biological target: T35, TSSK1B (Homo sapiens, UniProt Q9BXA7); assay: KinomeScan; format: binding; conditions: read-out: % control
T35 construct: purchased DiscoveRx KINOMEscan

[36] = biological target: T36, TYRO3 (Homo sapiens, UniProt Q06418); assay: KinomeScan; format: binding; conditions: read-out: % control
T36 construct: purchased DiscoveRx KINOMEscan

[37] = biological target: T37, ULK3 (Homo sapiens, UniProt Q6PHR2); assay: KinomeScan; format: binding; conditions: read-out: % control
T37 construct: purchased DiscoveRx KINOMEscan

[38] = biological target: T38, VEGFR2 (Homo sapiens, UniProt P35968); assay: KinomeScan; format: binding; conditions: read-out: % control
T38 construct: purchased DiscoveRx KINOMEscan

[39] = biological target: T39, YSK1 (Homo sapiens, UniProt O00506); assay: KinomeScan; format: binding; conditions: read-out: % control
T39 construct: purchased DiscoveRx KINOMEscan

[40] = test system: BaF3-TEL-EGFR-C797S; assay: Anti-proliferation, BaF3 isogenic cell lines (CellTiter-Glo); format: cell-based; conditions: Mus musculus, 72 hours, triplet testing
[41] = test system: H1975 tumor xenografts; assay: H1975 cells inoculated xenograft mouse model; conditions: for Tumor weight (final, mean): 21-day treatment
[42] = H1975 xenograft, 25.0 mg/kg/d oral
[43] = H1975 xenograft, 50.0 mg/kg/d oral
[44] = H1975 xenograft, 100 mg/kg/d oral

T4 sequence (Q8TDC3 whole entry): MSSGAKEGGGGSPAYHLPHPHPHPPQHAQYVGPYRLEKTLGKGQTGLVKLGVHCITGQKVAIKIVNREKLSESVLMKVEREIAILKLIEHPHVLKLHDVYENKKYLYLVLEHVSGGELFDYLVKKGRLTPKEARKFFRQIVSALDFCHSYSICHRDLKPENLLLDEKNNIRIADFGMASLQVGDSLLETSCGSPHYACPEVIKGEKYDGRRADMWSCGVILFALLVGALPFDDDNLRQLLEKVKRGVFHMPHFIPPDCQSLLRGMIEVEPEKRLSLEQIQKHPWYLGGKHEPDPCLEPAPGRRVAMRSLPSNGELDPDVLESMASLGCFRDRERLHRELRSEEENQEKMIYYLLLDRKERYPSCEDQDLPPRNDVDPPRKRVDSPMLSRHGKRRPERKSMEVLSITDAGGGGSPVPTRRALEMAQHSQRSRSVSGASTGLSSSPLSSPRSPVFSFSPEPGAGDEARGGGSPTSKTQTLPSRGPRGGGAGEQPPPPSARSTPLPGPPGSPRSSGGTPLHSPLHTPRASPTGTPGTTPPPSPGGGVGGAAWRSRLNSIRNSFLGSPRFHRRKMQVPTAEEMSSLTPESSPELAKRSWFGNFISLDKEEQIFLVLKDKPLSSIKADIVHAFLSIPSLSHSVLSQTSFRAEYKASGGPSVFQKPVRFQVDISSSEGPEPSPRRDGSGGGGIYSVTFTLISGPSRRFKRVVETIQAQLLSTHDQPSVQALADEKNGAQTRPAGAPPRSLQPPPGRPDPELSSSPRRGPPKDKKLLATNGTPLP
T11 sequence (P68400 whole entry): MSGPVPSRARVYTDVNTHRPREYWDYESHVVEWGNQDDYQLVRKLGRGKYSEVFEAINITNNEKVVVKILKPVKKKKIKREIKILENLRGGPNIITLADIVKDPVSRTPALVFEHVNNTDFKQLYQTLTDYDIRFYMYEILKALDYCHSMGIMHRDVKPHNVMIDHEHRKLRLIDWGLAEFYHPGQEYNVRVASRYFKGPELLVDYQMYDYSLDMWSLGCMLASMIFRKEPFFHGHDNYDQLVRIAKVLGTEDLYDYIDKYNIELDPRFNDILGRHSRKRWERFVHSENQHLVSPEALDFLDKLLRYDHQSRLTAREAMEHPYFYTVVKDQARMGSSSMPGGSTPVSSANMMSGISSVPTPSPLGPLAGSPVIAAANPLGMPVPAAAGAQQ
T18 sequence (O14920 whole entry): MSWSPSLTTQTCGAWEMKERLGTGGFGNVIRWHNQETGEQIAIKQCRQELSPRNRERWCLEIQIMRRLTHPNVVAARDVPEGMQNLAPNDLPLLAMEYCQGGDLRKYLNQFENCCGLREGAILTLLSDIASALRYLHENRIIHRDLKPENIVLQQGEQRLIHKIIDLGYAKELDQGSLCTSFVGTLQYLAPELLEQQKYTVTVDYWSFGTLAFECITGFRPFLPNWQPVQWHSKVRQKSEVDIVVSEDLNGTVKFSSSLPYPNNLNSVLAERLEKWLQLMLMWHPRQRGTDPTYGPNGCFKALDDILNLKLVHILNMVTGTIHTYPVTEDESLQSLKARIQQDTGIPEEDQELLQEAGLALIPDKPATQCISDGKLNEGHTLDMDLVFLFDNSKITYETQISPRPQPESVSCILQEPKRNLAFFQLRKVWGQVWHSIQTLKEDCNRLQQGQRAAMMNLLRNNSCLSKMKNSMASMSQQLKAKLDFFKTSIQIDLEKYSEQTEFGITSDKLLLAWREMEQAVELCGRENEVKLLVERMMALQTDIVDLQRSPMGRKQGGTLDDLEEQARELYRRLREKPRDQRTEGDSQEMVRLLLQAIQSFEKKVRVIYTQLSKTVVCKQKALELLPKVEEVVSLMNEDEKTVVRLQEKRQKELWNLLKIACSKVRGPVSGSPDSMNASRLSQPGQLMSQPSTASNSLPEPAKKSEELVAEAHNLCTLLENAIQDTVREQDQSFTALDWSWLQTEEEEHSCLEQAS
T14 sequence (Q9UEE5 whole entry): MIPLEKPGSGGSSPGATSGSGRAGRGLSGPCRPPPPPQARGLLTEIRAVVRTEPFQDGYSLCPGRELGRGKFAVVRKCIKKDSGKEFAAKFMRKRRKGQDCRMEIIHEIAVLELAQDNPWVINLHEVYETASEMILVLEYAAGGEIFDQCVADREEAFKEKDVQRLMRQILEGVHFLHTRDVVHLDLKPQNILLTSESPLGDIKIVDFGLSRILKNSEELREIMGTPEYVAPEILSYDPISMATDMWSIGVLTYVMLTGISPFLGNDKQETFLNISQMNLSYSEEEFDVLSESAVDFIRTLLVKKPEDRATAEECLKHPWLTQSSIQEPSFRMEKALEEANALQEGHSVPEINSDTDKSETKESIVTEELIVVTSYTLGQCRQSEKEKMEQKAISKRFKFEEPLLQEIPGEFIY
T31 sequence (Q99640 whole entry): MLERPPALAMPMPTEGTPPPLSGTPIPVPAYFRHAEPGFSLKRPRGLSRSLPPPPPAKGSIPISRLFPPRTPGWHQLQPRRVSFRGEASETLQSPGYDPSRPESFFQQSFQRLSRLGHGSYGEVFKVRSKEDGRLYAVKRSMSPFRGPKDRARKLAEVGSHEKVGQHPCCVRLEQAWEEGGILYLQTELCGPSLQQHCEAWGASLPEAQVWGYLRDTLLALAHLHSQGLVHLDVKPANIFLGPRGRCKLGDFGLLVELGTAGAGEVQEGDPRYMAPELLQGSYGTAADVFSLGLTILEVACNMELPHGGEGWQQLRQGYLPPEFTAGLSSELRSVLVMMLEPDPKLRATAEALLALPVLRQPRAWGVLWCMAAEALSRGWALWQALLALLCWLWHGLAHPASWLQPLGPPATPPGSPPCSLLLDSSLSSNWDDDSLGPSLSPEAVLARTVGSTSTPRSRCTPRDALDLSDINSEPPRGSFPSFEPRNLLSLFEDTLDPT
T22 sequence (P10721 26-976): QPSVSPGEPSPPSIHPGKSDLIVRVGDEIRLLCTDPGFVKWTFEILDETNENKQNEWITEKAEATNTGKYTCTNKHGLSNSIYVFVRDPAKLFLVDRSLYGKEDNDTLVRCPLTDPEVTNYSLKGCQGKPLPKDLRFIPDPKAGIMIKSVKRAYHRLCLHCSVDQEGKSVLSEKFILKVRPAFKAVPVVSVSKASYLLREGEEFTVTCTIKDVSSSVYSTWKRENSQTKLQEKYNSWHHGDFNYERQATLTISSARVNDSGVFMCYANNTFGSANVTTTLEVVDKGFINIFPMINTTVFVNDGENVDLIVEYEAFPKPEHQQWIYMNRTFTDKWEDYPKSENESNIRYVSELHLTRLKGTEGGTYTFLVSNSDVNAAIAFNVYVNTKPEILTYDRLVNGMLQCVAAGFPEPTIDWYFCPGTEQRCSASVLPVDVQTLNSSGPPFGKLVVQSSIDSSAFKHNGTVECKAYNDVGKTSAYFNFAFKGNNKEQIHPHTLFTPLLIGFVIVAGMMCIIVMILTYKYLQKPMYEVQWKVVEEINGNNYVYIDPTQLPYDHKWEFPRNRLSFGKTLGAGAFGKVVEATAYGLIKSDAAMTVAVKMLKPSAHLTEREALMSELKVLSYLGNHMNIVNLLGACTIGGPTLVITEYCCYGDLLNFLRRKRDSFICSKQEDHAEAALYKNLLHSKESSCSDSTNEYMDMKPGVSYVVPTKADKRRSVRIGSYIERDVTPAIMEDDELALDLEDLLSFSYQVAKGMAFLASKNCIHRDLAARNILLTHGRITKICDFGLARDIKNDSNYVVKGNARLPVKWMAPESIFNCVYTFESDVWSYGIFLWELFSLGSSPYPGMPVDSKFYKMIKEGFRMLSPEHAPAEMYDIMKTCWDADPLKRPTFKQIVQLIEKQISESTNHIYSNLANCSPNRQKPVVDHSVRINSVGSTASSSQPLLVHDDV
T39 sequence (O00506 whole entry): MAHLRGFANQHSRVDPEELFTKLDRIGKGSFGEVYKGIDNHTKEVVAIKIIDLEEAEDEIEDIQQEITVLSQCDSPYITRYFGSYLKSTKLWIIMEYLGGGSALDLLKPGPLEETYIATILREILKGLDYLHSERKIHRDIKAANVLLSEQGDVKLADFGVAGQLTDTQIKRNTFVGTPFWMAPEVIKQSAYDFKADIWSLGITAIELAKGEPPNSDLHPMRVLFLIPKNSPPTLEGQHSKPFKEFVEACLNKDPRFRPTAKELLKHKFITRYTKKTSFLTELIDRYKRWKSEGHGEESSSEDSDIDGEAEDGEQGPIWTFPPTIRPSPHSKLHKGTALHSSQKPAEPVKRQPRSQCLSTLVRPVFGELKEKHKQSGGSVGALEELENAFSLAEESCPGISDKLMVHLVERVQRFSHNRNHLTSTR
T27 sequence (P15735 whole entry): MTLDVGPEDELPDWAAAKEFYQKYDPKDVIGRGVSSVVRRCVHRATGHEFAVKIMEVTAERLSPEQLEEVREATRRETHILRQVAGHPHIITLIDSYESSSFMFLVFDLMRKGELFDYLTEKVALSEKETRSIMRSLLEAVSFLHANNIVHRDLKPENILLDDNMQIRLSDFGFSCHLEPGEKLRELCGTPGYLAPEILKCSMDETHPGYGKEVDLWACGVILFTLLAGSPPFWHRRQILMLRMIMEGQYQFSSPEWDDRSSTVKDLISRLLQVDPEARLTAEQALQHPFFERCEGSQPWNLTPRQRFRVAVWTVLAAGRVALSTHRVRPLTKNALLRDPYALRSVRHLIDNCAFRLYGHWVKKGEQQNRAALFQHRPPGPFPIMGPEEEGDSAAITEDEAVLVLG
T19 sequence (P23458 875-1154 limits assumed): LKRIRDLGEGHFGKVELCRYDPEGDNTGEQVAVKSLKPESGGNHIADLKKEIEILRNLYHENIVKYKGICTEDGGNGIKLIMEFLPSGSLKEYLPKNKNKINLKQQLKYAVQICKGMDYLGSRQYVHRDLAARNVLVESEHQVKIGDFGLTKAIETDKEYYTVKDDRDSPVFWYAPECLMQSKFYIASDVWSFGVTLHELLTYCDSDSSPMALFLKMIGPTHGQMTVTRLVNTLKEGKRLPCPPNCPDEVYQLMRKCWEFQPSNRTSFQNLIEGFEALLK

C=CC(=O)N1CCC[C@@H](n2nc(-c3ccc(OCc4cccc(C)n4)c(Cl)c3)c3c(N)ncnc32)C1 [CHMFL-EGFR-26]
remaining binding at 1 µM [1]: 96%
remaining binding at 1 µM [2]: 100%
remaining binding at 1 µM [3]: 85%
remaining binding at 1 µM [4]: 93%
remaining binding at 1 µM [5]: 100%
remaining binding at 1 µM [6]: 90%
remaining binding at 1 µM [7]: 100%
remaining binding at 1 µM [8]: 97%
remaining binding at 1 µM [9]: 100%
remaining binding at 1 µM [10]: 100%
remaining binding at 1 µM [11]: 100%
remaining binding at 1 µM [12]: 100%
remaining binding at 1 µM [13]: 78%
remaining binding at 1 µM [14]: 100%
remaining binding at 1 µM [15]: 89%
remaining binding at 1 µM [16]: 0%
remaining binding at 1 µM [17]: 95%
remaining binding at 1 µM [18]: 98%
remaining binding at 1 µM [19]: 91%
remaining binding at 1 µM [20]: 84%
remaining binding at 1 µM [21]: 76%
remaining binding at 1 µM [22]: 95%
remaining binding at 1 µM [23]: 79%
remaining binding at 1 µM [24]: 100%
remaining binding at 1 µM [25]: 86%
remaining binding at 1 µM [26]: 94%
remaining binding at 1 µM [27]: 100%
remaining binding at 1 µM [28]: 100%
remaining binding at 1 µM [29]: 83%
remaining binding at 1 µM [30]: 100%
remaining binding at 1 µM [31]: 92%
remaining binding at 1 µM [32]: 85%
remaining binding at 1 µM [33]: 100%
remaining binding at 1 µM [34]: 55%
remaining binding at 1 µM [35]: 89%
remaining binding at 1 µM [36]: 53%
remaining binding at 1 µM [37]: 92%
remaining binding at 1 µM [38]: 100%
remaining binding at 1 µM [39]: 20%
GI50 [40]: 2500 nM
TGI (tumor growth inhibition rate) [41, 42]: 23.0%
Tumor weight (final, mean) [41, 42]: 1.37 g
TGI (tumor growth inhibition rate) [41, 43]: 48.9%
Tumor weight (final, mean) [41, 43]: 0.91 g
TGI (tumor growth inhibition rate) [41, 44]: 60.1%
Tumor weight (final, mean) [41, 44]: 0.71 g
toxicity (body weight) ([41]; H1975 xenograft, oral 25, 50 and 100mg/kg/day): did not show any apparent toxicity
hyperglycemia ([41]; preclinical mouse model study): no hyperglycemia phenomenon was observed
